Like-named read-outs stand apart in the source and are kept apart here.
Tests used:
[1] = system: LPS-induced NF-κB/AP-1 transcriptional activity in THP-1Blue cells; assay: LPS-induced NF-κB/AP-1 reporter (secreted alkaline phosphatase) activity in THP-1Blue cells; assay type: cell-based, human; conditions: for inhibitory activity in THP-1Blue cells (in words): LPS-induced NF-κB/AP-1 reporter activity; for IC50: THP-1Blue cells, 30 min pretreatment, 250 ng/mL LPS for 24 h, alkaline phosphatase in supernatant, read-out: AP Production IC50
Procedure: THP-1 cells are a human monocyte cell line that was developed from a monocyte isolated from the peripheral blood of an acute monocytic leukemia patient. This cell line is used as a monocyte/macrophage model in immunology research. The THP-1Blue cells obtained from InvivoGen (San Diego, CA, USA) are THP-1 cells that were stably transfected with a secreted embryonic alkaline phosphatase gene that is under control of a NF-κB/AP-1-inducible promoter. For this study, THP-1Blue cells were cultured at 37 °C in a humidified atmosphere containing 5% CO2 in RPMI 1640 medium (Mediatech Inc., Herndon, VA, USA) supplemented with 10% (v/v) fetal bovine serum (FBS), 100 μg/mL streptomycin, 100 U/mL penicillin, 100 μg/mL phleomycin (Zeocin), and 10 μg/mL blasticidin S (all from Sigma-Aldrich, St. Louis, MO, USA).
To measure the activation of AP-1/NF-κB, the THP-1Blue cells (2 × 10^5 cells/well) were pretreated with the test compounds or dimethyl sulfoxide (DMSO; 1% final concentration) for 30 min, followed by the addition of 250 ng/mL of lipopolysaccharide (LPS; from Escherichia coli strain 0111:B4) for 24 h, and alkaline phosphatase activity was measured in the cell supernatants using the QUANTI-Blue mix (InvivoGen) as the absorbance at 655 nm and compared with positive control samples (LPS). The concentration of the compound that caused 50% inhibition of the NF-κB reporter activity (IC50) was calculated.

THP-1Blue cells = assay: Cytotoxicity, CellTiter-Glo Luminescent Cell Viability Assay; assay type: cell-based, human; conditions: 24 h, concentrations up to 50 µM
Procedure: Cytotoxicity was analyzed with a CellTiter-Glo Luminescent Cell Viability Assay Kit from Promega (Madison, WI, USA) according to the manufacturer’s protocol. THP-1Blue cells were treated with varying concentrations of the test compounds (up to 50 µM) and cultivated for 24 h. After treatment, the cells were allowed to equilibrate to room temperature for 30 min, the substrate was added, and the samples were analyzed with a Fluoroscan Ascent FL (Thermo Fisher Scientific, Waltham, MA, USA).

Solubility in DMSO = assay type: physicochemical
JNK1 = target: T1, JNK1 (Homo sapiens, UniProt P45983); assay: KINOMEscan ATP site-dependent binding assay; conditions: duplicate
T1 construct: purchased Eurofins Pharma Discovery (KINOMEscan)
T1 sequence (P45983 whole entry): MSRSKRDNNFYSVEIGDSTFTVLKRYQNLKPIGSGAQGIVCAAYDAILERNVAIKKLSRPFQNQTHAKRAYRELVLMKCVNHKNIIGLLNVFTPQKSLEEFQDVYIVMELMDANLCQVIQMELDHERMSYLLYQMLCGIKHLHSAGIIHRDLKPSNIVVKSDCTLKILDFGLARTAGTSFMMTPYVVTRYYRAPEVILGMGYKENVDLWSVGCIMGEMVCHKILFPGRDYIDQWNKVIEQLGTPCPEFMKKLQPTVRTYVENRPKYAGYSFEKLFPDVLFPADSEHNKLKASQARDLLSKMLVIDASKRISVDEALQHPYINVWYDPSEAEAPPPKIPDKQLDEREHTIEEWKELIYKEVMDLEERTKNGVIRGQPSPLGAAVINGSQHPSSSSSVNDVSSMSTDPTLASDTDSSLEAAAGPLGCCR
Procedure: (§1) Binding reactions were performed at room temperature for 1 h, and the fraction of kinase not bound to the test compound was determined by capture with an immobilized affinity ligand and quantified by quantitative polymerase chain reaction. The primary screening at fixed concentrations of the compound was performed in duplicate.

JNK2 = target: T2, JNK2 (Homo sapiens, UniProt P45984); assay: KINOMEscan ATP site-dependent binding assay; conditions: duplicate
T2 construct: purchased Eurofins Pharma Discovery (KINOMEscan)
T2 sequence (P45984 whole entry): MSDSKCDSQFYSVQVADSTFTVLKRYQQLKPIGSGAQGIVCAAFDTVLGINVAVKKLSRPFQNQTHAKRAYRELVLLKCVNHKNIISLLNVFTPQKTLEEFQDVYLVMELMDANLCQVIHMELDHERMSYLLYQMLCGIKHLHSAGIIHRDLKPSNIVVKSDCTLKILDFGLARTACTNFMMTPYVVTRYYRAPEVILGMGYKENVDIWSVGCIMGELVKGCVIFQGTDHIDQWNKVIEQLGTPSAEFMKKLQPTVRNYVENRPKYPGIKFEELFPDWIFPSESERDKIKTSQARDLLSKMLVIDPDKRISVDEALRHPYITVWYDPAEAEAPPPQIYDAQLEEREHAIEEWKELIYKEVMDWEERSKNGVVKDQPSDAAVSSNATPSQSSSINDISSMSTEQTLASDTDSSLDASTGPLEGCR
Procedure: as §1

JNK3 = target: T3, JNK3 (Homo sapiens, UniProt P53779); assay: KINOMEscan ATP site-dependent binding assay; conditions: duplicate
T3 construct: purchased Eurofins Pharma Discovery (KINOMEscan)
T3 sequence (P53779 whole entry): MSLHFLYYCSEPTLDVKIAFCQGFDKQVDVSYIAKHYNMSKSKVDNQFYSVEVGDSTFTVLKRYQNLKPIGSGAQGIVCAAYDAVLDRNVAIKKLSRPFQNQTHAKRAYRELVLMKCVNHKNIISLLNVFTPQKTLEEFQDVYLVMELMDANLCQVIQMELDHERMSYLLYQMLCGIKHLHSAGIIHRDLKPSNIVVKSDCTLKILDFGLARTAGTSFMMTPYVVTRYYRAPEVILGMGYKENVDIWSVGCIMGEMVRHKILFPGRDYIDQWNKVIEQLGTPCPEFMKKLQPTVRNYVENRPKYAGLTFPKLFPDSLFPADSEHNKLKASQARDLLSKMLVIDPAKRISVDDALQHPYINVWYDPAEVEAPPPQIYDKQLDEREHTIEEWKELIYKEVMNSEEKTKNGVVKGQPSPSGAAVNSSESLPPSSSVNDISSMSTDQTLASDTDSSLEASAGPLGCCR
Procedure: as §1

melting point [°C] | Compound | Cytotoxicity (THP-1Blue cells) | other results
189 to 192 | CSc1ccc(Cn2c(=O)c3ccccc3n3ncc(C#N)c23)cc1 (hydrate or solvate) [7e] | – | –
177 to 180 | NC(=O)c1cnn2c1nc(OCc1ccc(S(N)(=O)=O)cc1)c1ccc(Cl)cc12 (hydrate or solvate) [23c, 8-Chloro-5-(4-sulfamoylbenzyloxy)pyrazolo[1,5-a]quinazoline-3-carboxamide] | – | –
> 295 | N#Cc1cnn2c1[nH]c(=O)c1cc([N+](=O)[O-])ccc12 [2d] | – | –
195 to 197 | CCOC(=O)c1cnn2c1[nH]c(=O)c1ccc([N+](=O)[O-])cc12 [4c] | – | –
224 to 226 | CCOC(=O)c1cnn2c3ccccc3c(=O)n(Cc3ccc(S(N)(=O)=O)cc3)c12 [7c] | – | –
208 to 209 | NC(=O)c1cnn2c1nc(OCc1ccccc1)c1ccccc12 [13b, 5-(Benzyloxy)pyrazolo[1,5-a]quinazoline-3-carboxamide] | N.T. (no cytotoxicity was found in THP-1Blue cells at concentrations up to 50 µM) | IC50 ([1]; Homo sapiens): 4.81 µM; IC50 [1]: 4.8 ± 1.2 µM; solubility in DMSO (Solubility in DMSO): low solubility in DMSO
227 to 229 | NC(=O)c1cnn2c1nc(OCc1ccccc1Cl)c1ccccc12 [13d] | – | –
242 to 245 | NC(=O)c1cnn2c1nc(OCc1cccc(Cl)c1)c1ccccc12 [13e] | – | –
226 to 227 | Cc1ccccc1COc1nc2c(C(N)=O)cnn2c2ccccc12 [13g] | – | –
167 to 168 | NC(=O)c1cnn2c1nc(OCc1ccc(S(N)(=O)=O)cc1)c1ccccc12 [13i, 5-[(4-Sulfamoylbenzyl)oxy]pyrazolo[1,5-a]quinazoline-3-carboxamide] | N.T. (no cytotoxicity was found in THP-1Blue cells at concentrations up to 50 µM) | IC50 ([1]; Homo sapiens): 9.7 ± 2.4 µM; Kd (JNK1): 10.9 ± 1.4 µM; Kd (JNK2): 18.5 ± 2.3 µM; Kd (JNK3): 9 ± 1.2 µM
276 to 279 | CSc1ccc(Cn2c(=O)c3ccccc3n3ncc(C(N)=O)c23)cc1 [14c] | – | –
179 to 181 | c1ccc(COc2nc3c(-c4ccsc4)cnn3c3ccccc23)cc1 [21a] | – | –
125 to 126 | Nc1ccccc1COc1nc2c(-c3ccsc3)cnn2c2ccccc12 [21b] | – | –
288 to 290 | COc1nc2c(C(N)=O)cnn2c2cc(Cl)ccc12 [23a, 8-Chloro-5-methoxypyrazolo[1,5-a]quinazoline-3-carboxamide] | N.T. (no cytotoxicity was found in THP-1Blue cells at concentrations up to 50 µM) | IC50 ([1]; Homo sapiens): 7.9 ± 1.6 µM
269 to 271 | COc1nc2c(C(N)=O)cnn2c2ccc([N+](=O)[O-])cc12 [33b, 5-Methoxy-7-nitropyrazolo[1,5-a]quinazoline-3-carboxamide] | N.T. (no cytotoxicity was found in THP-1Blue cells at concentrations up to 50 µM) | IC50 ([1]; Homo sapiens): 18.2 ± 2.5 µM
> 295 | N#Cc1cnn2c1nc(Nc1ccc(N)cc1)c1cc([N+](=O)[O-])ccc12 [42d] | – | –
> 300 | CNc1nc2c(C#N)cnn2c2cc(N)ccc12 [46b] | – | –
> 300 | CNc1nc2c(C(N)=O)cnn2c2cc(N)ccc12 [46c] | – | –
> 300 | O=c1nc[nH]c2c1cnc1ccnn12 [53b] | – | –
176 to 177 | c1ccc(CNc2nc3c(-c4ccsc4)cnn3c3ccccc23)cc1 [compound 22] | – | –
288 to 290 | CN(C)/C=N/C(=O)c1cnn2c1[nH]c(=O)c1ccc(Cl)cc12 [compound 26, (E)-8-Chloro-N-[(dimethylamino)methylene]-5-oxo-4,5-dihydropyrazolo[1,5-a]quinazoline-3-carboxamide] | N.T. (no cytotoxicity was found in THP-1Blue cells at concentrations up to 50 µM) | IC50 ([1]; Homo sapiens): 49.3 ± 4.6 µM
269 to 271 | CCOC(=O)c1cnn2c1nc(Nc1ccc(N)cc1)c1cc([N+](=O)[O-])ccc12 [compound 40] | – | –
> 300 | CNc1nc2c(C(N)=O)cnn2c2cc([N+](=O)[O-])ccc12 [compound 43, 5-(Methylamino)-8-nitropyrazolo[1,5-a]quinazoline-3-carboxamide] | N.T. (no cytotoxicity was found in THP-1Blue cells at concentrations up to 50 µM) | IC50 ([1]; Homo sapiens): 11.8 ± 2.2 µM
> 300 | Cn1c(=O)c2ccc(N)cc2n2ncc(C(N)=O)c12 [compound 49] | – | –

Further lines, the compound ahead of its results:

Compound | melting point [°C] | Cytotoxicity (THP-1Blue cells) | other results
5-{[4-(Methanesulfonyl)phenyl]methoxy}-3-(thiophen-3-yl)pyrazolo[1,5-a]quinazoline [compound 20] | – | N.T. (no cytotoxicity was found in THP-1Blue cells at concentrations up to 50 µM) | inhibitory activity in THP-1Blue cells (in words) [1]: moderate activity; IC50 [1]: 13.3 ± 2.6 µM
CSc1ccc(Cn2c(=O)c3ccccc3n3nccc23)cc1 (hydrate or solvate) [7f] | 137 to 139 | – | –
N#Cc1cnn2c1[nH]c(=O)c1ccc([N+](=O)[O-])cc12 [2c] | 280 to 283 | – | –
CCOC(=O)c1cnn2c1[nH]c(=O)c1cc([N+](=O)[O-])ccc12 [4d] | 217 to 220 | – | –
COc1nc2c(C(N)=O)cnn2c2ccccc12 [13a, 5-Methoxypyrazolo[1,5-a]quinazoline-3-carboxamide] | 246 to 247 | N.T. (no cytotoxicity was found in THP-1Blue cells at concentrations up to 50 µM) | IC50 ([1]; Homo sapiens): 24.4 ± 3.1 µM
NC(=O)c1cnn2c1nc(OCc1ccc(Br)cc1)c1ccccc12 [13f] | 243 to 244 | – | –
COc1cccc(COc2nc3c(C(N)=O)cnn3c3ccccc23)c1 [13h] | 210 to 212 | – | –
NC(=O)c1cnn2c1nc(OCc1ccc(S(N)(=O)=O)cc1)c1ccc(Cl)cc12 [23c, 8-Chloro-5-(4-sulfamoylbenzyloxy)pyrazolo[1,5-a]quinazoline-3-carboxamide] | – | N.T. (no cytotoxicity was found in THP-1Blue cells at concentrations up to 50 µM) | IC50 ([1]; Homo sapiens): 12.2 ± 2.1 µM
COc1nc2c(C(N)=O)cnn2c2cc([N+](=O)[O-])ccc12 [33a, 5-Methoxy-8-nitropyrazolo[1,5-a]quinazoline-3-carboxamide] | – | N.T. (no cytotoxicity was found in THP-1Blue cells at concentrations up to 50 µM) | IC50 ([1]; Homo sapiens): 14.1 ± 2.9 µM
CNc1nc2c(C#N)cnn2c2cc([N+](=O)[O-])ccc12 [42a, 5-(Methylamino)-8-nitropyrazolo[1,5-a]quinazoline-3-carbonitrile] | > 300 | N.T. (no cytotoxicity was found in THP-1Blue cells at concentrations up to 50 µM) | IC50 ([1]; Homo sapiens): 30.1 ± 3.3 µM; inhibitory activity in THP-1Blue cells (in words) [1]: moderate activity
N#Cc1cnn2c1nc(Nc1ccc(N)cc1)c1ccc([N+](=O)[O-])cc12 [42c] | > 295 | – | –
COc1nc2c(C(N)=O)cnn2c2cc(N)ccc12 [46a] | > 300 | – | –
CCOC(=O)c1cnn2c1ncc1c(=O)nc[nH]c12 [53a] | > 300 | – | –
COc1ccc2c(c1)-n1ncc(C(=O)NCc3ccccc3)c1NC2 [58c] | – | N.T. (no cytotoxicity was found in THP-1Blue cells at concentrations up to 50 µM) | IC50 ([1]; Homo sapiens): 39.1 µM; IC50 [1]: 34.1 ± 4.1 µM
C[S+]([O-])c1ccc(Cn2c(=O)c3ccccc3n3ncc(I)c23)cc1 (stereo not drawn) [compound 9] | 198 to 201 | – | –
C[S+]([O-])c1ccc(COc2nc3c(C(N)=O)cnn3c3ccccc23)cc1 (stereo not drawn) [compound 16] | 225 to 226 | N.T. (no cytotoxicity was found in THP-1Blue cells at concentrations up to 50 µM) | IC50 ([1]; Homo sapiens): 7.9 ± 1.7 µM; Kd (JNK1): 17 ± 2.1 µM; Kd (JNK2): 21 ± 2.4 µM; Kd (JNK3): 10.4 ± 1.5 µM
COc1nc2c(C#N)cnn2c2cc(N)ccc12 [compound 47, 8-amino-5-methoxy-PQ-3-carbonitrile] | > 300 | – | –
Cn1c(=O)c2ccc(N)cc2n2ncc(C#N)c12 [compound 48] | 286 to 288 | – | –
